Data as given in patent US6737433B1, “1-N-phenylamino-1H-imidazole derivatives as aromatase inhibitors and pharmaceutical compositions containing them” (Laboratoire Theramex, priority 2002, dated 2004).

Molecular target: T1, human aromatase (Homo sapiens, UniProt P11511)
T1 construct: The JEG-3 cell line, derived from a human placental choriocarcinoma, is intrinsically very rich in human aromatase; endogenous in cells; host or cells: JEG-3 (human placental choriocarcinoma)
T1 sequence (P11511 1-503): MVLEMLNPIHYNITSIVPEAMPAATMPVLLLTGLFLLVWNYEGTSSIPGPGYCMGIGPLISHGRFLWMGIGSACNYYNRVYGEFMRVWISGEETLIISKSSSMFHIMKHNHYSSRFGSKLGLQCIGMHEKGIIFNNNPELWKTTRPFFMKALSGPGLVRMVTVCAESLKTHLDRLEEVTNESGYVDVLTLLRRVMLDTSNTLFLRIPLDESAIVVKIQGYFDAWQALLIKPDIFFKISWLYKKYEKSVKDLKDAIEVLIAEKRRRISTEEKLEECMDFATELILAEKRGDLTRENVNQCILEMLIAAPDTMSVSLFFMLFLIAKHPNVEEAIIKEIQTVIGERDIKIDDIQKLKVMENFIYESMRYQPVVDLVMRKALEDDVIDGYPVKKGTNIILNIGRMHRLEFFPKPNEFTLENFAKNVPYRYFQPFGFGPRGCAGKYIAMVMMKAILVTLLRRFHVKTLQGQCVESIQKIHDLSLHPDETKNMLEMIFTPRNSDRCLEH
Test: Inhibition of human aromatase in vitro in JEG-3 cells (3H-water release from 1β-3H-androstenedione)
Type: cell-based
Details: 10 nM 1β-3H-androstenedione, 2 h incubation
Description: Stocks of JEG-3 cells are grown up to 80% of confluence as monolayers in plastic flasks in minimum Eagle's medium with 1 g/l glucose and 10% decomplemented fetal calf serum at pH 7.4 and 37° C., under a 5% CO2 atmosphere. Then, 24 hours before aromatase activity measurement, JEG-3 cells are distributed for seeding in 96-well microplates (60,000 to 100,000 viable cells in 100 μl of culture medium per well); 24 hours later, microplates are rinsed and fresh medium containing the radioactive aromatase substrate (1β-^3H-androstenedione, 10 nM) is added together with test compounds dissolved with 1% dimethylsulfoxyde in a test concentration range between 10^−11 and 10^−4 M in a total volume of 150 μl.
Two hours after the beginning of the incubation, 100 μl of the supernatants are transferred to homologous new 96-well microplates. A solution of dextran-coated charcoal (1%) is added in each well (100 μl/well); after standing for 10 minutes on ice, microplates are centrifuged (1500 g) for 10 more minutes at 4° C. All steroids, including the radioactive substrate and the newly biosynthesized estrogens, are trapped complexed by the charcoal; only the ^3H-water specifically formed during aromatisation of 1β-^3H-androstenedione, involving a specific oxidative step removing the 1β-^3H, remains in the supernatant at this stage.
Finally, aromatase activity is expressed in fmoles/μg DNA in 2 hours and aromatase inhibition in percentage of control incubation without inhibitors.

Question: With `N#Cc1ccc(N(Cc2ccc(C(F)(F)F)cc2)n2ccnc2)cc1` [Example 6, 4-[N-(1H-imidazol-1-yl)-N-(4-trifluoromethylphenylmethyl)amino]benzonitrile] as the compound, how does the IC50 read?
Answer: 0.31 ± 0.01 nM

Question: With `N#Cc1ccc(N(Cc2ccc(Cl)cc2)n2ccnc2)cc1` [Example 7, 4-[N-(1H-imidazol-1-yl)-N-(4-chlorophenylmethyl)amino]benzonitrile] as the compound, how does the IC50 read?
Answer: 0.14 ± 0.05 nM

Question: With `N#Cc1ccc(CN(c2ccc(C#N)cc2)n2ccnc2)cc1` [Example 11, 4-[N-(1H-imidazol-1-yl)-N-(4-cyanophenylmethyl)amino]benzonitrile] as the compound, how does the IC50 read?
Answer: 0.18 ± 0.02 nM

Question: For `N#Cc1ccc(N(Cc2ccc(F)cc2)n2ccnc2)cc1` [Example 14, 4-[N-(1H-imidazol-1-yl)-N-(4-fluorophenylmethyl)amino]benzonitrile], which IC50 is on record?
Answer: 0.16 ± 0.02 nM

Question: With `N#Cc1ccc(N(Cc2ccc(F)c(F)c2)n2ccnc2)cc1` [Example 17, 4-[N-(1H-imidazol-1-yl)-N-(3,4-difluorophenylmethyl)amino]benzonitrile] as the compound, how does the IC50 read?
Answer: 0.24 ± 0.02 nM

Question: For `N#Cc1ccc(N(Cc2ccc(Br)cc2)n2cncn2)cc1` [YM 511, reference compound], which IC50 is on record?
Answer: 0.3 ± 0.04 nM

Molecular target: T2, aromatase (Rattus norvegicus, UniProt P22443)
T2 construct: from tissue; host or cells: whole animal: adult female Wistar rats (endogenous enzyme)
T2 sequence (P22443 1-508): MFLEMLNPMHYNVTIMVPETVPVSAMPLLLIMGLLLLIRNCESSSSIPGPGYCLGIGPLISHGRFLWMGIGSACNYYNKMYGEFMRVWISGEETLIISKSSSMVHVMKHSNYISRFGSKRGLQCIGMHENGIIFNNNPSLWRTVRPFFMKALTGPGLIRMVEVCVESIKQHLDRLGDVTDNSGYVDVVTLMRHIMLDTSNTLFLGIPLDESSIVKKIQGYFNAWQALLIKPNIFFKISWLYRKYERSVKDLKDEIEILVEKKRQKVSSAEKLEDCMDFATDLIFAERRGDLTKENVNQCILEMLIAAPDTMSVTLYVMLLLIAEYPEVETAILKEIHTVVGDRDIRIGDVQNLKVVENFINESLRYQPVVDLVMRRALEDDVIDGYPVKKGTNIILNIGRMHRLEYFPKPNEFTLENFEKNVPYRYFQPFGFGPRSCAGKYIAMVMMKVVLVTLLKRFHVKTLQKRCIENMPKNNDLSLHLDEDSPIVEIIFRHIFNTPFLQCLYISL
Test: Inhibition of aromatase in vivo: inhibition of preovulatory surge of plasma estradiol in female Wistar rats
Details: single oral dose 10 μg/kg on diestrus, plasma estradiol 24 h later, vs vehicle controls; range = independent studies
Excerpt: Aromatase is the steroidogenic enzyme responsible for the biosynthesis of estradiol, the main female sex hormone among estrogens. In the rat, estradiol is physiologically synthesized to high circulating levels in a particular period during the 4-day estrous cycle: it is the so-called preovulatory surge taking place in the afternoon of proestrus, just before ovulation which occurs during the night between proestrous and estrous phases. A sensitive physiological model for in vivo evaluation of aromatase inhibition was developped based on the inhibition of this preovulatory surge of estradiol levels.
Adult female Wistar rats are monitored for regular 4-day estrous cyclicity by daily vaginal smear examination; after 2 or 3 regular cycles, animals are treated by a single oral administration of the very low discriminative dose of 10 micrograms/kg in a 4 ml/kg volume around 04:00 PM on diestrus, i.e. on the day before proestrus. Precisely 24 hours later, aortic blood samples are drawn under gaseous anesthesia. Plasma estradiol levels are measured by radioimmunoassay with commercially available kits (Diagnostic Systems Laboratories, Webster, Tex., U. S. A.). Control and test groups usually consist of 7 to 10 rats, depending on the number of regularly cycling rats to distribute among study groups. Results are expressed in pg/ml and then in % of inhibition taking the estradiol levels of control animals receiving only the oral vehicle as the 100% reference to allow comparisons between different independent studies, since the preovulatory surge level may vary in each control group from one study to another between about 25 to 40 pg/ml.

Question: For `CC(C)(C#N)c1cc(Cn2cncn2)cc(C(C)(C)C#N)c1` [Anastrozole, anastrozole, reference compound], which “% inhibition at 10 μg/kg” value is on record?
Answer: 18%-33%

Question: With `N#Cc1ccc(N(Cc2ccc(C(F)(F)F)cc2)n2ccnc2)cc1` [Example 6, 4-[N-(1H-imidazol-1-yl)-N-(4-trifluoromethylphenylmethyl)amino]benzonitrile] as the compound, how does the “% inhibition at 10 μg/kg” value read?
Answer: 57%

Question: For `N#Cc1ccc(N(Cc2ccc(Cl)cc2)n2ccnc2)cc1` [Example 7, 4-[N-(1H-imidazol-1-yl)-N-(4-chlorophenylmethyl)amino]benzonitrile], which “% inhibition at 10 μg/kg” value is on record?
Answer: 47%

Question: Which “% inhibition at 10 μg/kg” value does the source give for `N#Cc1ccc(CN(c2ccc(C#N)cc2)n2ccnc2)cc1` [Example 11, 4-[N-(1H-imidazol-1-yl)-N-(4-cyanophenylmethyl)amino]benzonitrile] here?
Answer: 57%-59%

Question: For `N#Cc1ccc(N(Cc2ccc(F)cc2)n2ccnc2)cc1` [Example 14, 4-[N-(1H-imidazol-1-yl)-N-(4-fluorophenylmethyl)amino]benzonitrile], which “% inhibition at 10 μg/kg” value is on record?
Answer: 49%-57%

Question: For `N#Cc1ccc(N(Cc2ccc(F)c(F)c2)n2ccnc2)cc1` [Example 17, 4-[N-(1H-imidazol-1-yl)-N-(3,4-difluorophenylmethyl)amino]benzonitrile], which “% inhibition at 10 μg/kg” value is on record?
Answer: 60%

Question: Which “% inhibition at 10 μg/kg” value does the source give for `N#Cc1ccc(N(Cc2ccc(Br)cc2)n2cncn2)cc1` [YM 511, reference compound] here?
Answer: 35%

System: not given
Test: not given
Details: not given

Question: With `N#Cc1ccc(N(Cc2ccc(C(F)(F)F)cc2)n2ccnc2)cc1` [Example 6, 4-[N-(1H-imidazol-1-yl)-N-(4-trifluoromethylphenylmethyl)amino]benzonitrile] as the compound, how does the melting point read?
Answer: 134 °C

Question: Which melting point does the source give for `N#Cc1ccc(N(Cc2ccc(F)c(F)c2)n2ccnc2)cc1` [Example 17, 4-[N-(1H-imidazol-1-yl)-N-(3,4-difluorophenylmethyl)amino]benzonitrile] here?
Answer: 132 °C
